Like-named read-outs stand apart in the source and are kept apart here.
Experiments:
cell line DPX2 [1] = details: human, 10 μM
Experimental: (§1) The activity of the new rifamycins is expressed as a ratio between luciferase activity in cells treated with the tested substance and that of the cells treated with DMSO. The viability and morphology of the cells are analyzed by optical microscopy.

human receptor PXR [2] = target: T1, human receptor PXR (Homo sapiens, UniProt O75469); details: 10 μM
T1 sequence (O75469 1-434): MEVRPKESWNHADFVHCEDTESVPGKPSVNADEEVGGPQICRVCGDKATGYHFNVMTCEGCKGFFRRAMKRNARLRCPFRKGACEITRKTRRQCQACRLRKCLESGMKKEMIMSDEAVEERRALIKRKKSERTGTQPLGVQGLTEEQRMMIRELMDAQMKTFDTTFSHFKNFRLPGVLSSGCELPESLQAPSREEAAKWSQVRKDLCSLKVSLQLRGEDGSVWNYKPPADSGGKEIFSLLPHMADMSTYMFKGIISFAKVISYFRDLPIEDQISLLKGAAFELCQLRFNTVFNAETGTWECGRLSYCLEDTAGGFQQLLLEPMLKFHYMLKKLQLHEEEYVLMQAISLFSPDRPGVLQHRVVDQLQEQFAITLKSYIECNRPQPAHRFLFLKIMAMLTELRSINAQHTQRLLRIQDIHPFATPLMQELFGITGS
Experimental: as §1

human receptor PXR [3] = target: T1, human receptor PXR; assay: activation of the PXR receptor: CYP3A4 luciferase reporter induction in cell line DPX2; details: for Induction above DMSO: ratio of luciferase activity to DMSO-treated cells; for Mean RLU: cell line DPX2P29
Experimental: as §1

[4] = test system: Micrococcus luteus ATCC 10240; assay: plate diffusion method, antibacterial activity and MIC; type: cell-based
Experimental: To verify antibacterial activity, the plate diffusion method is used as described in the pharmacopeia: • A quantity of the sample is weighed and slowly dissolved in 25 ml of methanol R • A quantity of 0.05 M phosphate buffer at pH 7.0 is added so as to obtain the following concentrations: 50 μg/ml, 20 μg/ml, 10 μg/ml and 5 μg/ml • Plates were prepared with appropriate culture medium (agar thickness approximately 2-5 mm) inoculated with a suspension of Micrococcus luteus ATCC 10240, Staphylococcus aureus ATCC 6538 and Escherichia coli ATCC 8739. • 0.1 ml of the different concentrations of each sample were dispensed into the wells formed in the agar plates • The plates were held for 1-2 hours at ambient temperature to allow diffusion of the sample and then incubated at 35-39° C. for not less than 18 hours. • The diameters of the inhibition halos of the compounds were measured with a gauge and compared with those of the reference substance, the results being expressed as percentages.

cell line DPX2 [5] = assay: viability and morphology of the cells by optical microscopy
Experimental: as §1

[6] = Table A, 5 μg/ml, inhibition halo vs reference standard (rifamycin S for SX1, rifampicin for SX4 and SX5)
[7] = Table A, 10 μg/ml, inhibition halo vs reference standard (rifamycin S for SX1, rifampicin for SX4 and SX5)
[8] = Table A, 50 μg/ml, inhibition halo vs reference standard (rifamycin S for SX1, rifampicin for SX4 and SX5)
[9] = Table B, 5 μg/ml, compared with standard rifampicin
[10] = Table B, 10 μg/ml, compared with standard rifampicin
[11] = Table B, 20 μg/ml, compared with standard rifampicin
[12] = Table B, 50 μg/ml, compared with standard rifampicin

Structure (SMILES) | Induction above DMSO (human receptor PXR [3]; 10 μM) | percentage antibacterial activity [4, 6] [%] | percentage antibacterial activity [4, 7] [%] | percentage antibacterial activity [4, 8] [%] | Mean RLU (human receptor PXR [3]; 5 μM) [RLU] | Induction above DMSO (human receptor PXR [3]; 5 μM) | Mean RLU (human receptor PXR [3]; 10 μM) [RLU] | Mean RLU (human receptor PXR [3]; 20 μM) [RLU] | Induction above DMSO (human receptor PXR [3]; 20 μM) | Mean RLU (human receptor PXR [3]; 40 μM) [RLU] | Induction above DMSO (human receptor PXR [3]; 40 μM) | Cell appearance**: cell confluence (%) (cell line DPX2 [5]; 5 μM) | Cell appearance**: morphology (cell line DPX2 [5]; 5 μM) | Cell appearance**: cell confluence (%) (cell line DPX2 [5]; 10 μM) | Cell appearance**: cell confluence (%) (cell line DPX2 [5]; 20 μM) | Cell appearance**: cell confluence (%) (cell line DPX2 [5]; 40 μM) | percentage antibacterial activity [4, 9] [%] | percentage antibacterial activity [4, 10] [%] | percentage antibacterial activity [4, 11] [%] | percentage antibacterial activity [4, 12] [%] | further results
CC[C@H](C)C(=O)O[C@H]1CCC=C2C=C[C@H](C)[C@H](CC[C@@H]3C[C@@H](O)CC(=O)O3)[C@H]21 [Mevastafin, Mevastatin] | 3.4 | – | – | – | – | – | – | – | – | – | – | – | – | – | – | – | – | – | – | – | Cell appearance**: cell confluence (%) (cell line DPX2 [1]): 30%; Cell appearance**: morphology (cell line DPX2 [1]): MCM; Mean RLU (human receptor PXR [2]): 758 RLU
CO[C@H]1/C=C/O[C@@]2(C)Oc3c(C)c(O)c4c(c3C2=O)C(=O)C(N2CCOCC2)=C(NC(=O)/C(C)=C\C=C\[C@H](C)[C@@H]2OC(C)(C)O[C@@H]([C@@H](C)[C@H](OC(C)=O)[C@@H]1C)[C@@H]2C)C4=O [Example 23, 3-morpholine-21,23 O-isopropylidenerifamycin S, reference compound] | 35.3 | 39 | 40 | 69 | 6537 | 29.3 | 7869 | 4738 | 21.2 | 396 | 1.8 | 30 | MCM | 30 | 10 | 0 | – | – | – | – | MIC (Minimum Inhibitory Concentration) ([4]; Table A): <5 µg/mL; PXR activation, comparison in words (human receptor PXR [3]; compared with the compounds of the invention): decidedly less active
CCOCCN1CCN(N=Cc2c3c(O)c4c(O)c(C)c5c(c4c2O)C(=O)C(C)(OCCC(OC)C(C)C(OC(C)=O)C(C)C(O)C(C)C(O)C(C)CCCC(C)C(=O)N3)O5)CC1 (centres unmarked) [Example 12, 3-[4′-(2-ethoxyethyl)-1′-piperazinyl-iminomethyl]-16,17,18,19,28,29-hexahydrorifamycin SV] | – | – | – | – | – | – | – | – | – | – | – | – | – | – | – | – | 0 | 0 | 0 | 0 | MIC (Minimum Inhibitory Concentration) ([4]; Table B): >50 µg/mL
COC1CCOC2(C)Oc3c(C)c(O)c4c(O)c(c(C=NN5CCN(C)CC5)c(O)c4c3C2=O)NC(=O)C(C)CCCC(C)C(O)C(C)C(O)C(C)C(OC(C)=O)C1C (centres unmarked) [Example 1, 3-(4′-methyl-1′-piperazinyl-iminomethyl)-16,17,18,19,28,29-hexahydrorifamycin SV] | 54.1 | 0 | 0 | 42 | 8698 | 39.0 | 12069 | 12918 | 57.9 | 14636 | 65.6 | 30 | MCM | 30 | 30 | 30 | – | – | – | – | Cell appearance**: morphology (cell line DPX2 [5]; 10 μM): MCM; Cell appearance**: morphology (cell line DPX2 [5]; 20 μM): MCM; Cell appearance**: morphology (cell line DPX2 [5]; 40 μM): MCM
COC1CCOC2(C)Oc3c(C)c(O)c4c(O)c(c(C=NN5CCN(C)CC5)c(O)c4c3C2=O)NC(=O)C(C)CCCC(C)C2OC(C)(C)OC(C2C)C(C)C(OC(C)=O)C1C (centres unmarked) [Example 3, 3-(4′-methyl-1′-piperazinyl-iminomethyl)-21,23-O-isopropylidene-16,17,18,19,28,29-hexahydrorifamycin SV] | 48.6 | 0 | 0 | 0 | 8052 | 36.1 | 10848 | 7125 | 32.0 | 4243 | 19.0 | 30 | MCM | 30 | 20 | 20 | – | – | – | – | MIC (Minimum Inhibitory Concentration) ([4]; Table A): >50 µg/mL; Cell appearance**: morphology (cell line DPX2 [5]; 10 μM): MCM; Cell appearance**: morphology (cell line DPX2 [5]; 20 μM): MCM
CCN1CCN(N=Cc2c3c(O)c4c(O)c(C)c5c(c4c2O)C(=O)C(C)(OCCC(OC)C(C)C(OC(C)=O)C(C)C(O)C(C)C(O)C(C)CCCC(C)C(=O)N3)O5)CC1 (centres unmarked) [Example 6, 3-(4′-ethyl-1′-piperazinyl-iminomethyl)-16,17,18,19,28,29-hexahydrorifamycin SV] | – | – | – | – | – | – | – | – | – | – | – | – | – | – | – | – | 0 | 0 | 0 | 39 | –
COC1CCOC2(C)Oc3c(C)c(O)c4c(O)c(c(C=NN5CCN(C(C)C)CC5)c(O)c4c3C2=O)NC(=O)C(C)CCCC(C)C(O)C(C)C(O)C(C)C(OC(C)=O)C1C (centres unmarked) [Example 15, 3-(4′-isopropyl-1′-piperazinyl-iminomethyl)-16,17,18,19,28,29-hexahydrorifamycin SV] | – | – | – | – | – | – | – | – | – | – | – | – | – | – | – | – | 0 | 0 | 0 | 0 | MIC (Minimum Inhibitory Concentration) ([4]; Table B): >50 µg/mL

Source: patent US20100168129A1, “DRUGS WITH ANTICHOLESTATIC ACTIVITY” (priority 2007, published 2010)
